From PMC6823370, “A novel nucleoside rescue metabolic pathway may be responsible for therapeutic effect of orally administered cordycepin” (Scientific Reports, 2019)
Read-outs that look alike come from different tables or passages of the source.

Experiments:
[1] = Caco-2 permeability; type: in vitro ADME; details: human, Caco-2; read-out: Papp of 3′-deoxyinosine, A to B
Procedure: (§1) Caco-2 permeability assays were conducted following previously reported methods with 21-day maintenance on the Corning 24-well Transwell® (Fisher Scientific, Loughborough, UK)[48]. […] Both directions of apical-to-basolateral and basolateral-to-apical were tested. […] The experiments were conducted in triplicates.
(§2) Samples from Caco-2 permeability, in vitro determination of CordyTP formation and in vivo experiments were subjected to protein precipitation followed by LC-MS/MS analysis. To 50 µL of rat plasma sample, 150 µL of internal standard solution (1.67 µg/mL 2-chloroadenosine in methanol) was added. The samples were then vortex-mixed for 10 s and were centrifuged for 3 min at 17949 g. Supernatant (20 µL) was collected and diluted 10-fold with DDW before injection into the LC-MS/MS for analysis of cordycepin and 3′-deoxyinosine. For analysis of CordyTP, the supernatant was filtered using filter tubes mentioned above and injected without dilution. Tissue samples were homogenised using Bullet Blender Gold (Next Advance, Inc., Troy, NY) in methanol (1:3 w/v) and centrifuged for 3 min at 17949 g. The supernatant was filtered and injected for analysis of CordyTP or diluted 10-fold with DDW for analysis of cordycepin and 3′-deoxyinosine. The LC-MS/MS system was a API4000 QTrap (AB Sciex, Warrington, UK) equipped with HPLC setup of SCL10Avp controller, LC10ADvp pump and SILHTC autosampler (Shimadzu, Milton Keynes, UK). Three different methods were utilised for each compound and multiple reaction monitoring parameters of the MS/MS conditions are shown in Table 1. The HPLC conditions including stationary phases and specific mass spectrometry parameters are shown in Supplementary Information 2. The LC-MS/MS method for cordycepin was fully validated in terms of accuracy, precision, sensitivity, selectivity, linearity and sample storage stability in accordance with the Guidance for Industry, Bioanalytical Method Validation, (2018) published by the US FDA (refer to Supplementary Information 3 for validation procedures and results)[53].

[2] = system: Caco-2 cells; test: Caco-2 permeability; type: in vitro ADME; details: cells treated with cordycepin in the absence of pentostatin
Procedure: as §1, §2

[3] = In vivo pharmacokinetics in rats after intravenous or oral cordycepin; design: species or system Sprague Dawley rats; details: male, Sprague Dawley; for C0: in vivo, read-out: C0 of 3′-deoxyinosine; for Vd: plasma, rat, read-out: Vss of 3′-deoxyinosine
Procedure: Protocols for the animal experiments in this study were reviewed and approved by the University of Nottingham Ethical Review Committee in accordance with the Animals [Scientific Procedures] Act 1986. Four male Sprague Dawley rats (Charles River Laboratories, UK) of 300–350 g body weight were used. The animals were housed in the Bio Support Unit, University of Nottingham at controlled temperature, 12 h light/dark cycle and free access to food and water. The animals were allowed to acclimatise for at least six days prior to any procedures.
Prior to pharmacokinetic studies, jugular vein cannulation surgery was performed under general anaesthesia (<3% isoflurane inhalation) for blood sampling or intravenous drug administration. Following two nights of recovery from surgery, the animals were intravenously or orally administered with the PBS-based formulation (5.5 mg/mL cordycepin) developed in a previously reported study. The dose was 8 or 20 mg/kg for intravenous administration and 8 or 80 mg/kg for oral administration. […] When whole blood was analysed, an aliquot was withdrawn immediately after mixing with the pretreated pentostatin. Otherwise, the mixture was centrifuged (3000 g, 10 min) to obtain plasma and samples were stored within the storage conditions tested prior to analysis.
as §2
Data are presented as mean ± standard deviation (SD). A two-tailed unpaired t-test was applied for assessment of statistical significance of differences between two groups. For three or more groups, the statistical significance was assessed by application of a one-way ANOVA followed by Tukey’s multiple comparisons test. A p-value lower than 0.05 was deemed statistically significant. Statistical analyses were conducted using GraphPad Prism version 7.01 (GraphPad Software, Inc., La Jolla, CA, USA). Pharmacokinetic parameters were obtained by non-compartmental analysis using Phoenix WinNonlin 6.3 software (Pharsight, Mountain View, CA, USA).
For calculation of pharmacokinetic parameters, the plasma concentration-time curve was plotted in a semi-log scale. From the plot, the elimination rate constant (ke) was calculated. Elimination half-life (t1/2) wasthen calculated using the following equation: […]

[4] = system: RAW264.7 cells; test: Repression of inflammatory gene expression in LPS-stimulated RAW264.7 cells (qPCR); type: cell-based, mouse; details: for effect of pre-treatment on the inhibitory effect of cordycepin on inflammatory gene expression: LPS
Procedure: RAW 264.7 mouse macrophage cells were cultured in DMEM supplemented with 10% FBS. Prior to experiments, cells were washed with PBS and cells were maintained in DMEM with 0.5% FBS or 10% FBS for 24 h. LPS was added at 1 µg/mL, 1 h before compound treatment, when needed. When the cells were analysed for concentration levels of cordycepin, 3′-deoxyinosine and CordyTP, the cells were washed twice with PBS. The cells were then treated with methanol and mixed vigorously before the mixture was harvested. The mixture was filtered using filter tubes mentioned above and the filtrate was analysed by liquid chromatography coupled with tandem mass spectrometry (LC-MS/MS). For determination of relative mRNA levels, RNA was isolated from the lysates using an RNA isolation kit, following manufacturer’s protocol (Promega, Madison, WI, cat no. Z6012). RNA was reverse transcribed to cDNA using SuperScript™ III reverse transcriptase (Invitrogen, Carlsbad, CA). Quantitative polymerase chain reaction (qPCR), was performed with Qiagen Rotor-Gene Q qPCR machine (Qiagen, Hilden, Germany) using Promega SYBR Green GoTaq® qPCR master mix (Promega).
Figure 3 Repression effect on inflammatory gene expression. (a) NBTI or ITu treatment prior to cordycepin treatment suppresses effect of cordycepin. RAW264.7 cells were treated with 10 µM NBTI, 100 nM ITu or DMSO (Ctrl, control) 15 min prior to cordycepin treatment. The cells were stimulated with LPS 1 h after cordycepin treatment (mean ± SD, n = 3). **p < 0.01; ***p < 0.001 compared to DMSO treatment (labelled as Ctrl). (b) 3′-deoxyinosine exerts same repression effect as cordycepin, although to a lesser degree. RAW264.7 cells were treated with 20 µM cordycepin, 20 µM 3′-deoxyinosine (3DI) or DMSO (Ctrl, control) for 1 h prior to LPS stimulation (mean ± SD, n = 3). **p < 0.01; ***p < 0.001 compared to without compound treatment (labelled as LPS).

OC[C@@H]1C[C@@H](O)[C@H](n2cnc3c(O)ncnc32)O1 [3′-deoxyinosine]
Papp A→B at 120 min, 200 µM [1]: ~0.2 ×10⁻⁶ cm/s
permeation of 3′-deoxyinosine [2]: detected
C0 ([3]; rat plasma, intravenous cordycepin 8 mg/kg): 5730 ± 1630 ng/mL
C0 ([3]; rat plasma, intravenous cordycepin 20 mg/kg): 16300 ± 3870 ng/mL
Vd ([3]; intravenous cordycepin 8 mg/kg): 2.8 ± 0.3 L/kg
Vd ([3]; intravenous cordycepin 20 mg/kg): 3 ± 0.7 L/kg
Cmax ([3]; rat plasma, oral cordycepin 8 mg/kg, read-out: Cmax of 3′-deoxyinosine): 202 ± 98 ng/mL
effect on expression of inflammatory genes ([4]; 20 µM, 1 h prior to LPS stimulation): suppressed expression of inflammatory genes

Nc1ncnc2c1c(I)cn2[C@@H]1O[C@H](CO)[C@@H](O)[C@H]1O [ITu, 5-iodotubericidin, reference compound]
effect of pre-treatment on the inhibitory effect of cordycepin on inflammatory gene expression ([4]; 100 nM ITu 15 min prior to cordycepin): inhibit the inhibitory effect of cordycepin

O=[N+]([O-])c1ccc(CSc2ncnc3c2ncn3[C@@H]2O[C@H](CO)[C@@H](O)[C@H]2O)cc1 [NBTI, S-(4-nitrobenzyl)-6-thioinosine, reference compound]
effect of pre-treatment on the inhibitory effect of cordycepin on inflammatory gene expression ([4]; 10 µM NBTI 15 min prior to cordycepin): inhibit the inhibitory effect of cordycepin
